{
  "source": "patent US10953027B2",
  "about": "“Active agents and methods of their use for the treatment of metabolic disorders and nonalcoholic fatty liver disease” (Flagship Pioneering Innovations V, Inc., priority 2018, dated 2021)",
  "key": {"AhR": {"tested_on": "AhR", "experiment": "AhR activation in Caco-2 cells through CYP1A1 mRNA expression", "conditions": "Conc. 1000.0 μM", "procedure": "Caco-2 cells from American Type Culture Collection (ATCC) were plated in a sterile tissue culture treated 96-well plate (ThermoFisher) at […] per well, and grown overnight at 37° C., 5% CO2 in DMEM complete (Gibco) in order to achieve confluence. After the incubation medium was aspirated from the Caco-2 monolayers, tissues were then washed with 200 μL of warmed PBS solution, and subsequently 190 μL of pre-warmed growth medium was added to each well. Compounds of interest were diluted at a 20× concentration in growth medium containing 2% DMSO, and 10 μL of compound solutions were added to respective wells in triplicate. Compounds where incubated overnight at 37° C., 5% CO2. 2-(1′H-indole-3′-carbonyl)-thiazole-4-carboxylic acid methyl ester (ITE) was used as the positive control for AhR activation at 1 and 100 μM concentrations. At the end of the incubation, medium was aspirated off of the Caco-2 cells, and washed with 100 μL of cold PBS solution. RNA was extracted via the TaqMan™ Gene Expression Cells-to-CT™ Kit (ThermoFisher) according to the manufacturers protocol. The QuantStudio 6 Flex (Applied Biosciences) was used to analyze mRNA levels of CYP1A1 using GAPDH as the endogenous control. TaqMan™ probe sets for both genes were acquired from ThermoFisher. Samples were run in triplicate and data was analyzed using the QuantStudio software and reported as linear (Table 1) and log 2(ΔΔCT) values. Statistical analysis was performed using a two-tailed t-test comparing CYP1A1 levels in the presence of each individual compound to the vehicle negative control."}, "Caco-2 colonocytes": {"tested_on": "Caco-2 colonocytes", "experiment": "Human Caco-2 barrier integrity assay (TEER)", "format": "cell-based", "conditions": "48 hours", "procedure": "Caco-2 colonocytes were maintained at 37° C. and 5% CO2 in Dulbecco's Modified Eagle Medium (DMEM) and supplemented with 10% FBS, 1% NEAA, 1% penicillin-streptomycin. At 70-80% confluency, cells were trypsinized and seeded in 0.4 cm^2 transwell collagen I coated membranes with supplemented DMEM in both apical and basolateral compartments. Cells were seeded at a density of 200,000 cells per well and maintained for 10 days to form a polarized barrier with a TransEpithelial Electrial Resistance (TEER) reading above 1000Ω. On the first day of the assay, initial TEER readings were taken and cytokines were added to the basolateral media (50 ng/mL TNFα, 25 ng/mL IFNγ and 10 ng/mL IL-1β) to reduce barrier integrity while compounds diluted in (dimethylsulfoxide) DMSO were added to the apical media in triplicate. After 48 hours, TEER readings were taken again and viability was measured by CellTiter 96® AQueous One Solution Cell Proliferation Assay (Promega). The percent change in TEER over the 48 hours was determined and normalized to the 0.1% DMSO control (Table 6)."}, "[1]": {"tested_on": "Human Peripheral Blood Monocytes (PBMCs)", "experiment": "Cytokine release from human PBMCs", "format": "cell-based", "conditions": "100 μM, LPS, 24 hours", "procedure": "Human donor blood (8 mL) was collected in sodium citrate CPT tubes and centrifuged at 1,600×g for 20 minutes at room temperature. […] PBMCs samples were centrifuged at 400×g for 10 minutes at 10° C. […] PBMCs were filtered through a 70 micron mesh to remove any cellular debris. […] PBMCs in a 96-well plate were rested for 30 minutes in a 37° C., 5% CO2 incubator, then subsequently treated with 10 μl of indicated compound. After 2 hours 10 μL of LPS (O111:B4) 1 mg/mL was added to test wells. After 24 hours of incubation at 37° C., 5% CO2, 100 μL of cell supernatant was collected and transferred to a 96-well plate (non-tissue treated, flat bottom). The plate was centrifuged at 350×g for 5 minutes at room temperature, and then the clear supernatant transferred to a new 96-well plate (non-tissue treated, flat bottom). The remaining cells were tested for viability using CellTiter-Glo® Luminescent Cell Viability Assay (Promega). The supernatant was analyzed for TNFα, IL-6 and IL-1β (kit LXSAHM-03; R&D Systems), using Luminex Immunoassay Technology (MAGPIX System). Cytokine levels of LPS treated DMSO control samples were set to 100%, and compound treated samples were expressed relative to this (Table 13)."}, "[2]": {"tested_on": "Primary human subcutaneous adipocytes", "experiment": "Glucose uptake in human subcutaneous adipocytes, insulin sensitive model", "format": "cell-based", "procedure": "Primary human subcutaneous adipocytes (Zen Bio, Research Triangle Park, N.C.) were differentiated for two weeks prior to treatment. Cells were treated with indicated compounds diluted in (dimethyl-sulfoxide) DMSO in serum free medium for 24 hours in triplicate. After 24 hours, media was exchanged for assay buffer and the compounds were added again but in the presence of approximately 1 nM insulin. Glucose uptake was initiated with the addition of a cocktail containing 2-deoxyglucose and ^3H-2-deoxyglucose and allowed to incubate for 2 hours. Cells were washed, lysed and glucose uptake was measured as counts per well. As an assay control, 100 nM of insulin was used during the 2 hours of glucose uptake. […] Statistical changes in glucose uptake were determined by way ANOVA and compared to DMSO."}, "[3]": {"tested_on": "Primary human subcutaneous adipocytes", "experiment": "Glucose uptake in human subcutaneous adipocytes, insulin resistant model", "format": "cell-based", "procedure": "As described above, primary human subcutaneous adipocytes were differentiated for two weeks prior to treatment. To induce an insulin resistant state, cells were treated in serum free Dulbecco's Modified Eagle Medium (high glucose) and […] for 24 hours. Cells were simultaneously treated with compounds diluted in DMSO for 24 hours. As described above, after 24 hours, media was exchanged for assay buffer and the compounds were added again but in the presence of approximately 1 nM insulin. Cells were washed and lysed after 2 hours and glucose uptake was measured. […] Statistical changes in glucose uptake were determined by way ANOVA and compared to DMSO."}, "Mouse myocyte": {"tested_on": "Mouse myocyte", "experiment": "Mouse myocyte lipolysis assay", "format": "cell-based", "conditions": "Mus musculus, read-out: Free glycerol % DMSO", "procedure": "Cells were obtained from ATCC and cultured in Dulbecco's Modified Eagle's medium (DMEM) containing 20% fetal bovine serum and 1% penicillin/streptomycin at 37° C. in an incubator with 5% CO2. Once the cells became confluent, they were seeded into a tissue culture treated 96 well plate. The next day, the medium containing DMEM with 2% equine serum was used to start differentiation. Once cells were fully differentiated, they were treated with indicated compounds."}, "Mouse 3T3-L1 cells": {"tested_on": "Mouse 3T3-L1 cells", "experiment": "Mouse adipocyte lipolysis assay", "format": "cell-based", "conditions": "Mus musculus, 3T3-L1, 24 hours, read-out: Lipolysis Free Fatty Acids % DMSO", "procedure": "Once the cells became confluent, they were seeded into a tissue culture treated 96 well plate. […] After 14 days of differentiation, cells were treated with compounds of interest. After 24 hours post-treatment, the cell viability was assessed using CellTiter-Glo Luminescent Cell Viability Assay from Promega, and lipolysis was determined using Lipolysis Assay Kit from ZenBio."}, "naïve CD4+ T cells": {"tested_on": "naïve CD4+ T cells", "experiment": "Human regulatory T cell differentiation assay", "format": "cell-based", "conditions": "6 days", "procedure": "Peripheral blood mononuclear cells (PBMCs) from whole blood donated by health volunteers were separated by Ficoll-Paque gradient centrifugation and naïve CD4^+ T cells were subsequently isolated using magnet beads (EasySep™ Human Naïve CD4^+ T Cell Isolation Kit, Cambridge, Mass.). For regulatory T cell (Treg) differentiation assay, naïve CD4^+ T cells were cultured (1-10×10^4 cells) in CTS OpTmizer medium for 6 days and stimulated with 5 ng/ml TGF-β, 100 U/ml IL-2, and ImmunoCult™ Human […] T Cell Activator; Stemcell #10990) with/without our Compounds. Cell viability was determined using a viability dye (eBioscience Fixable Viability Dye eFluor 780: ThermoFisher 65-0865-14) at 1:500 dilution. The cells were gated for Treg, defined as Live, CD11c^−, CD14^−, CD19^−, CD8^−, CD4^+, CD3^+, CD25^+, FOXP3^+. Percent (%) Tregs were calculated as percentage of CD4^+, CD25^+, FOXP3^+ cells over total CD4^+ T cells. Statistical analysis was performed with GraphPad Prism Software Using One-Way ANOVA."}},
  "data": [
    {"smiles": "OCc1c[nH]c2ccccc12", "note": "[indole-3-carbinol]", "values": [
      {"measurement": "Average CYP1A1 mRNA levels", "setting": "AhR", "value": "+ (+ = >2-fold Vehicle)"}
    ]},
    {"smiles": "CCCC(=O)O", "note": "[Butyrate, butyrate]", "values": [
      {"measurement": "% Change in TEER from DMSO", "setting": "Caco-2 colonocytes; 1 mM + cytokines", "value": "− (≤125%: −)"},
      {"measurement": "% Change in TEER from DMSO", "setting": "Caco-2 colonocytes; 3 mM + cytokines", "value": "− (≤125%: −)"},
      {"measurement": "% Change in TEER from DMSO", "setting": "Caco-2 colonocytes; 5 mM + cytokines", "value": "++ (150%≥ ≤200%: ++)"},
      {"measurement": "IL6 % DMSO control", "setting": "[1]", "value": "+ ((+) 50%≥ <90% DMSO)"},
      {"measurement": "ILβ % DMSO control", "setting": "[1]", "value": "− ((−) ≥110% DMSO;)"},
      {"measurement": "TNFα % of DMSO control", "setting": "[1]", "value": "++ ((++) <50% DMSO)"},
      {"measurement": "Insulin Sensitive % DMSO (glucose uptake)", "setting": "[2]; 3 mM", "value": "− (<50%: −)"},
      {"measurement": "Insulin Resistant % DMSO (glucose uptake)", "setting": "[3]; 3 mM", "value": "+ (110%> ≤140%: +)"}
    ]},
    {"smiles": "CC(O)CC(=O)O", "note": "(stereo not drawn) [BHB, β-hydroxybutyrate]", "values": [
      {"measurement": "% Change in TEER from DMSO", "setting": "Caco-2 colonocytes; 200 μM + cytokines", "value": "+ (125%> ≤150%: +)"},
      {"measurement": "% Change in TEER from DMSO", "setting": "Caco-2 colonocytes; 2 mM + cytokines", "value": "− (≤125%: −)"},
      {"measurement": "IL6 % DMSO control", "setting": "[1]", "value": "= ((=) 90%≥ <110% DMSO)"},
      {"measurement": "ILβ % DMSO control", "setting": "[1]", "value": "− ((−) ≥110% DMSO;)"},
      {"measurement": "TNFα % of DMSO control", "setting": "[1]", "value": "− ((−) ≥110% DMSO;)"}
    ]},
    {"smiles": "Oc1ccc(C=Cc2cc(O)cc(O)c2)cc1", "note": "[Resveratrol, resveratrol]", "values": [
      {"measurement": "% Change in TEER from DMSO", "setting": "Caco-2 colonocytes; 10 μM + cytokines", "value": "− (≤125%: −)"},
      {"measurement": "% Change in TEER from DMSO", "setting": "Caco-2 colonocytes; 100 μM + cytokines", "value": "+++ (200%>: +++)"},
      {"measurement": "activity at 1 µM", "setting": "Mouse myocyte; 1 μM", "value": "70 to 90", "unit": "%"},
      {"measurement": "activity at 10 µM", "setting": "Mouse myocyte; 10 μM", "value": "50 to 70", "unit": "%"},
      {"measurement": "activity at 1 µM", "setting": "Mouse 3T3-L1 cells; 1 μM", "value": "70 to 90", "unit": "%"},
      {"measurement": "activity at 10 µM", "setting": "Mouse 3T3-L1 cells; 10 μM", "value": "90 to 100", "unit": "%"},
      {"measurement": "IL6 % DMSO control", "setting": "[1]", "value": "+ ((+) 50%≥ <90% DMSO)"},
      {"measurement": "ILβ % DMSO control", "setting": "[1]", "value": "= ((=) 90%≥ <110% DMSO)"},
      {"measurement": "TNFα % of DMSO control", "setting": "[1]", "value": "+ ((+) 50%≥ <90% DMSO)"},
      {"measurement": "Insulin Sensitive % DMSO (glucose uptake)", "setting": "[2]; 10 μM", "value": "= (50%> ≤110%: =)"},
      {"measurement": "Insulin Sensitive % DMSO (glucose uptake)", "setting": "[2]; 100 μM", "value": "− (<50%: −)"},
      {"measurement": "Insulin Resistant % DMSO (glucose uptake)", "setting": "[3]; 10 μM", "value": "= (50%> ≤110%: =)"},
      {"measurement": "Insulin Resistant % DMSO (glucose uptake)", "setting": "[3]; 100 μM", "value": "− (<50%: −)"},
      {"measurement": "Cell viability % DMSO", "setting": "naïve CD4+ T cells; 1 uM", "value": "− (<90%: −)"},
      {"measurement": "Cell viability % DMSO", "setting": "naïve CD4+ T cells; 10 uM", "value": "− (<90%: −)"},
      {"measurement": "activity at 1 µM", "setting": "naïve CD4+ T cells; Homo sapiens, CD4+ T, 144 h, 1 uM, read-out: Treg induction % DMSO", "value": "110 to 130", "unit": "%"},
      {"measurement": "activity at 10 µM", "setting": "naïve CD4+ T cells; Homo sapiens, CD4+ T, 144 h, 10 uM, read-out: Treg induction % DMSO", "value": "110 to 130", "unit": "%"}
    ]}
  ]
}
